Measurements taken from article PMC7253177, “Gain of channel function and modified gating properties in TRPM3 mutants causing intellectual disability and epilepsy” (eLife, 2020).

Biological target: T1, WT human TRPM3 (Homo sapiens, UniProt Q9HCF6)
T1 construct: expressed in transfected cells; host or cells: HEK293T
T1 sequence (Q9HCF6 1-1325 isoform Q9HCF6-10): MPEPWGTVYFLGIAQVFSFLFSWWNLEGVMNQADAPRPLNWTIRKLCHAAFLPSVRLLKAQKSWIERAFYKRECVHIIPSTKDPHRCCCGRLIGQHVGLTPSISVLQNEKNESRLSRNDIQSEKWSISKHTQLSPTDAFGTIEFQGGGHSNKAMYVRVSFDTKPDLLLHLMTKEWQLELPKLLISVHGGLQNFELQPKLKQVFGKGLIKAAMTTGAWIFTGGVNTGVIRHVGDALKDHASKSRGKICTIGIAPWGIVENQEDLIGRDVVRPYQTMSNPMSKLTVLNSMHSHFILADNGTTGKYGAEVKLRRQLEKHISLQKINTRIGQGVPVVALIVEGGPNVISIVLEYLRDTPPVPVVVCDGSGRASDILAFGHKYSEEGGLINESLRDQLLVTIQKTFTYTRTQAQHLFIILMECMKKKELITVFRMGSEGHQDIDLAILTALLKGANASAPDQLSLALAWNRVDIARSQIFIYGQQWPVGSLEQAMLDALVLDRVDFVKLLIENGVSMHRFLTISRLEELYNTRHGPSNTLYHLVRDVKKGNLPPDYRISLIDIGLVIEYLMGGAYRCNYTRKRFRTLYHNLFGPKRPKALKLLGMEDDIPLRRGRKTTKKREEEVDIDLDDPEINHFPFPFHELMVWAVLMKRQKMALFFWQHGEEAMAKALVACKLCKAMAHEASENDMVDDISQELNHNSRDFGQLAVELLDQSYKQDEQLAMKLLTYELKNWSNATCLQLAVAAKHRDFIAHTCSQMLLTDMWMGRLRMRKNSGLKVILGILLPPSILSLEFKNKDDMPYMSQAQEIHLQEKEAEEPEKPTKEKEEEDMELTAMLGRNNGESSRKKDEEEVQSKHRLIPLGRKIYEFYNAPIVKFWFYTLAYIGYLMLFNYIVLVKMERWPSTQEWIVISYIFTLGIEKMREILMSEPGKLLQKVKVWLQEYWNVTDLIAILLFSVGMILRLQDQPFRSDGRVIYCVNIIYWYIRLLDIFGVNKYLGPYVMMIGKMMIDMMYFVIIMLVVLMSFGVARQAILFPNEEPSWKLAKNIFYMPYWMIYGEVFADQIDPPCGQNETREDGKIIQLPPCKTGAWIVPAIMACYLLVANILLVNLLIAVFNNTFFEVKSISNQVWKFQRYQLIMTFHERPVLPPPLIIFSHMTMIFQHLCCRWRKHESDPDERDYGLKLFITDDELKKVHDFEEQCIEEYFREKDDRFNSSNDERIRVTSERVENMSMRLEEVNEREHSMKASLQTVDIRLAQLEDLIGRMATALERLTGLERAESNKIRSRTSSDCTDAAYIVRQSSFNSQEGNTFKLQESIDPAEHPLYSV
Assay: Whole-cell patch clamp, HEK293T cells expressing WT hTRPM3
Assay type: cell-based
Settings: WT
Protocol: HEK293T cells ([Graham et al., 1977]) were cultured as described previously ([Vriens et al., 2007]) and used up in passage number 14. HEK293T cells were tested for the lack of mycoplasma and transiently transfected with 2 µg of DNA using TransIT transfection reagent (Mirus) 36–48 hr before the measurements. In case of co-cultures a ratio of 1:1 between hTRPM3-YFP WT and mutants-YFP DNA was used.
Standard whole-cell patch-clamp recordings were performed with an EPC-10 amplifier and the PatchMasterPro Software (HEKA Elektronik, Lambrecht, Germany). Current measurements were performed at a sampling rate of 20 kHz and currents were digitally filtered at 2.9 kHz. In all measurements, 70% of the series resistance was compensated. The standard internal solution contained (in mM): 100 CsAsp, 45 CsCl, 10 EGTA, 10 HEPES, 1 MgCl2 (pH 7.2 with CsOH) or 140 potassium gluconate, 5 EGTA, 1 MgCl2, 10 HEPES and 2 NaATP (pH 7.3 with CsOH) for the measurements of Gβγ mediated inhibition and the standard extracellular solution contained (in mM): 150 NaCl, 1 MgCl2, 10 HEPES (pH 7.4 with NaOH). The standard patch pipette resistance was between 2 MΩ and 4 MΩ when filled with pipette solution. In experiments allowing Ca^2+-dependent desensitization of TRPM3, Mg^2+ was replaced by Ca^2+ in the extracellular solution, and Cs^+ was replaced by Na^+ in the pipette solution. […] The chemical ligands were dissolved in bath solution from a stock diluted in DMSO.

How did the “Activation of whole-cell currents in the absence of PS” value (Clt 10 µM) turn out when `Clc1ccccc1C(c1ccccc1)(c1ccccc1)n1ccnc1` [Clt, clotrimazole] was run?
The value was “did not activate currents by itself”.

And the “Effect on the response to PS (whole-cell currents)” value (Clt 10 µM, PS 40 µM)?
Its value is “potentiated responses to PS”.

With `CCC1(c2ccccc2)C(=O)NCNC1=O` [primidone] as the compound, how does the “Inhibition of PS-activated inward and outward currents” value (primidone 25 µM, PS 40 µM, ±80 mV, cells co-expressing µ-opioid receptor) read?
The value was “full inhibition”.

How did the “Activation of whole-cell currents” value (PS 40 µM) turn out when pregnenolone sulfate [PS] was run?
The value was “reversibly activated outwardly rectifying whole-cell currents”.
